Assay results as given in patent publication US7709634B2, “Amorphous form of rifaximin and processes for its preparation” (Apotex PharmAchem Inc., priority 2007, dated 2010).

Assay: Polymorphic stability on exposure to ambient humidity, checked by PXRD
Assay type: physicochemical
Details: exposure to ambient humidity for a period of 10 days
Excerpt: High yield of amorphous form of rifaximin is isolated by the processes of the present invention and it has high chemical purity and retains acceptable amounts of residual solvents.

CO[C@H]1/C=C/O[C@@]2(C)Oc3c(C)c(O)c4c(O)c(c5c(nc6cc(C)ccn65)c4c3C2=O)NC(=O)/C(C)=C\C=C\[C@H](C)[C@H](O)[C@@H](C)[C@@H](O)[C@@H](C)[C@H](OC(C)=O)[C@@H]1C [amorphous form of rifaximin, (2S,16Z,18E,20S,21S,22R,23R,24R,25S,26S,27S,28E)-5,6,21,23,25-pentahydroxy-27-methoxy-2,4,11,16,20,22,24,26-octamethyl-2,7-(epoxypentadeca-[1,11,13]trienimino)benzofuro[4,5-e]pyrido[1,2-α]-benzimidazole-1,15(2H)-dione,25-acetate]
polymorphic form after exposure to ambient humidity, as indicated by PXRD spectroscopy: did not change the polymorphic form
